Source: BindingDB's records for doi:10.1021/jm00397a034 (Hoffmann-La Roche, 1988)

What was measured:
[1] = Ability to inhibit platelet activating factor (PAF) binding to platelets by 50% was determined by using [3H]PAF as radioligand
[2] = target: Platelet-activating factor receptor (Canis familiaris); assay: ChEBML_158835
Experimental: Ability to inhibit platelet activating factor (PAF) binding to platelets by 50% was determined by using [3H]PAF as radioligand

Row | Compound | IC50 [1] | IC50 [2]
1 | Cc1cc2nc3ccc(C(=O)NCCCCc4cccnc4)cn3c(=O)c2cc1C | 0.25 µM | –
2 | CC(C)c1ccc2nc3ccc(C(=O)NCCCCc4ccncc4)cn3c(=O)c2c1 | 1.3 µM | –
3 | CC(C)c1ccc2nc3ccc(C(=O)NCCCCc4cccnc4)cn3c(=O)c2c1 | 0.35 µM | –
4 | O=C(NCCCCc1cccnc1)c1ccc2nc3ccc(O)cc3c(=O)n2c1 | 1.2 µM | –
5 | CC(C)Oc1ccc2nc3ccc(C(=O)NCCCCc4cccnc4)cn3c(=O)c2c1 | 0.6 µM | –
6 | CC(C)c1ccc2nc3ccc(C(=O)NCCCc4cccnc4)cn3c(=O)c2c1 | > 1 µM | –
7 | CC(C)c1ccc2nc3ccc(C(=O)NCCCCCCCc4cccnc4)cn3c(=O)c2c1 | > 1 µM | –
8 | COc1ccc2nc3ccc(C(=O)NCCCCc4cccnc4)cn3c(=O)c2c1 | 1 µM | –
9 | Cc1ccc2nc3ccc(C(=O)NCCCCc4cccnc4)cn3c(=O)c2c1 | 0.5 µM | –
10 | CC(C)c1ccc2nc3ccc(C(=O)NC(C)(C)CCCc4cccnc4)cn3c(=O)c2c1 | 1.2 µM | –
11 | COc1ccc2c(=O)n3cc(C(=O)NCCCCc4cccnc4)ccc3nc2c1 | 0.37 µM | –
12 | CC(C)c1ccc2nc3ccc(C(=O)NCCCCc4ccccn4)cn3c(=O)c2c1 | 5 µM | –
13 | CC(C)c1ccc2nc3ccc(C(=O)NCCCCCc4cccnc4)cn3c(=O)c2c1 | > 1 µM | –
14 | CC(C)c1ccc2nc3ccc(C(=O)NCCCCn4ccnc4)cn3c(=O)c2c1 | 3.5 µM | –
15 | O=C(NCCCCc1cccnc1)c1ccc2nc3ccccc3c(=O)n2c1 | 1.8 µM | –
16 | CC(C)c1ccc2nc3ccc(C(=O)NCCCCCCc4cccnc4)cn3c(=O)c2c1 | 0.4 µM | –

Row | Compound | IC50 [1] | IC50 [2]
17 | CC(C)c1ccc2nc3ccc(C(=O)NCCCCc4cncnc4)cn3c(=O)c2c1 | 0.45 µM | –
18 | CC(CCCc1cccnc1)NC(=O)c1ccc2nc3ccc(C(C)C)cc3c(=O)n2c1 (configuration not stated) | – | 0.4 µM
19 | O=C(NCCCCc1cccnc1)c1ccc2nc3ccc(Br)cc3c(=O)n2c1 | 0.7 µM | –
20 | O=C(NCCCCc1cccnc1)c1ccc2nc3cc(Cl)ccc3c(=O)n2c1 | 1 µM | –
21 | CC(C)c1ccc2nc3ccc(C(=O)NCCc4cccnc4)cn3c(=O)c2c1 | 2.5 µM | –
22 | Cc1cc2nc3ccc(C(=O)NCCCCCC[n+]4ccccc4)cn3c(=O)c2cc1C [1-{6-[(2,3-Dimethyl-11-oxo-11H-pyrido[2,1-b]quinazoline-8-carbonyl)-amino]-hexyl}-pyridinium] | > 1 µM | –
23 | Cc1cc2nc3ccc(C(=O)NCCCCc4cncnc4)cn3c(=O)c2cc1C [2,3-Dimethyl-11-oxo-11H-pyrido[2,1-b]quinazoline-8-carboxylic acid (4-pyrimidin-5-yl-butyl)-amide] | 0.1 µM | –
24 | CC(C)c1ccc2nc3ccc(CCCCCCc4cccnc4)cn3c(=O)c2c1 [2-Isopropyl-8-(6-pyridin-3-yl-hexyl)-pyrido[2,1-b]quinazolin-11-one] | > 1 µM | –
25 | CC(C)c1ccc2nc3ccc(CNCCCCc4cccnc4)cn3c(=O)c2c1 [2-Isopropyl-8-[(4-pyridin-3-yl-butylamino)-methyl]-pyrido[2,1-b]quinazolin-11-one] | > 1 µM | –
26 | CC(C)c1ccc2nc3ccc(C(=O)OCCCCc4cccnc4)cn3c(=O)c2c1 [2-Isopropyl-11-oxo-11H-pyrido[2,1-b]quinazoline-8-carboxylic acid 4-pyridin-3-yl-butyl ester] | > 1 µM | –
27 | CC(C)c1ccc2nc3ccc(C(=O)N[C@@H](C)CCCc4cccnc4)cn3c(=O)c2c1 [2-Isopropyl-11-oxo-11H-pyrido[2,1-b]quinazoline-8-carboxylic acid (1-methyl-4-pyridin-3-yl-butyl)-amide] | – | 0.6 µM
28 | CC(C)c1ccc2nc3ccc(C(=O)N[C@H](C)CCCc4cccnc4)cn3c(=O)c2c1 [2-Isopropyl-11-oxo-11H-pyrido[2,1-b]quinazoline-8-carboxylic acid (1-methyl-4-pyridin-3-yl-butyl)-amide] | – | 0.25 µM
29 | CC(C)c1ccc2nc3ccc(C(=O)NCCCCCCc4cncnc4)cn3c(=O)c2c1 [2-Isopropyl-11-oxo-11H-pyrido[2,1-b]quinazoline-8-carboxylic acid (6-pyrimidin-5-yl-hexyl)-amide] | 0.2 µM | –
30 | CC(C)c1ccc2nc3ccc(S(=O)(=O)NCCCCc4cccnc4)cn3c(=O)c2c1 [2-Isopropyl-11-oxo-11H-pyrido[2,1-b]quinazoline-8-sulfonic acid (4-pyridin-3-yl-butyl)-amide] | > 1 µM | –
31 | Cc1cc2nc3ccc(C(=O)NCCCCc4ccc[n+](C)c4)cn3c(=O)c2cc1C [3-{4-[(2,3-Dimethyl-11-oxo-11H-pyrido[2,1-b]quinazoline-8-carbonyl)-amino]-butyl}-1-methyl-pyridinium] | > 1 µM | –
32 | Cc1cc2nc3ccc(C(=O)NCCCCc4cnc[n+](C)c4)cn3c(=O)c2cc1C [5-{4-[(2,3-Dimethyl-11-oxo-11H-pyrido[2,1-b]quinazoline-8-carbonyl)-amino]-butyl}-1-methyl-pyrimidin-1-ium] | > 1 µM | –
